Experimental findings from article PMC8232266, “Lanolin-Based Synthetic Membranes for Transdermal Permeation and Penetration Drug Delivery Assays” (Membranes, 2021) are described below.

SMILES strings stand for the structures. Entries after “also recorded” stand apart in the source; their conditions may differ. Read-outs that look alike come from different tables or passages of the source. Marks after values point to notes of the source that are not given here.

Series [1] can be described thus: Infinite-dose kinetic permeation assay, vertical Franz diffusion cells, Nuclepore membrane. Format: in vitro ADME. As to conditions: NP, DS 3% / LIDO 2% in PG; for J (flux): Higuchi model. An excerpt:
(§1) Lastly, the entire system was clamped shut.

Series [2] in a line: Infinite-dose kinetic permeation assay, vertical Franz diffusion cells, 5% SEL lanolin membrane. Format: in vitro ADME. As for the experimental part: (§2) For the preparation of the membranes, the procedure described by Pullmannová, et al. was followed. […] Next, 300 µL of the lipid solution was spread onto the pre-weighed NP membranes (≈15 mg lanolin) in a three-step process. The solvent was then evaporated under a stream of N2. The lipid membranes prepared were vacuum-dried over […] in a desiccator and were stored in a fridge at 5 °C for 24 h. Prior to use, the lanolin-based membranes were then heated to 75 °C, equilibrated for 10 min, and then cooled down slowly (~3 h) to 32 °C. The last part of the cooling-heating cycle was incubation for 24 h at 32 °C. Using a skin pHmeter (Sebumeter pH 900, Courage + Khazaka, Cologne, Germany), the pH of the membranes was determined.
as §1

Series [3] is described as follows: Infinite-dose kinetic permeation assay, vertical Franz diffusion cells, 5% WEL lanolin membrane. As to conditions: DS 3% / LIDO 2% in PG; for J (flux): Ord 0 model. Format: in vitro ADME. As for the experimental part:
as §2, §1

A short description of series [4]: Finite-dose penetration test, Franz diffusion cells, Nuclepore-SEL membrane. Format: in vitro ADME. As to conditions: finite dose 20 µL, 24 h, Figure 1.
For series [5] the following is noted: infinite dose.

Consider `CCN(CC)CC(=O)Nc1c(C)cccc1C` [Lidocaine, lidocaine], for which, in series [1], the “Kinetics of Release (best-fit model)” value is “Higuchi”. For the same compound, the “J (flux)” value in series [1] is 1360.27 * µg/cm^2/h^½; in series [2] (Higuchi model, LIDO 2% in PG), 343.05 * µg/cm^2/h^½; in series [3], 4.85 µg/cm^2/h.

Regarding `O=C(O)Cc1ccccc1Nc1c(Cl)cccc1Cl` [Diclofenac Sodium, Diclofenac sodium], the “Kinetics of Release (best-fit model)” value in series [1] is “Higuchi”; in series [2] (DS 3% / LIDO 2% in PG) it was “Ord 0”; in series [3] (listed as DS), “zero-order kinetics; also recorded: Ord 0”; in series [5] (SKIN, DS 3% / LIDO 2% in PG) it was “Ord 0”. Moreover, the “J (flux)” value in series [1] is reported as 2307.12 * µg/cm^2/h^½; in series [2] (Ord 0 model, DS 3% in PG), 30.40 * µg/cm^2/h; in series [3] it was 6.18 µg/cm^2/h; in series [5] (SKIN, Ord 0 model, DS 3% / LIDO 2% in PG), 3.94 µg/cm^2/h. Further, the “permeation through Nuclepore-SEL membrane compared with skin” value in series [4] is given as “insignificant difference compared with the skin”. The “permeability (percentage permeated through the skin)” value in series [5] (pig skin, at 30 h) stood at 0.83 ± 0.42%.
